Target: T1, FGFR3 protein (Homo sapiens, UniProt P22607)
T1 construct: purchased Reaction Biology 1068
Test: FGFR3 enzyme assay (KinEASE-TK HTRF kinase assay)
Type: biochemical
Conditions: 0.25 nM enzyme, ATP at Km, 15 min pre-incubation on ice, 30 min at 30° C.
Protocol: FGFR3 and FGFR1 Enzyme Assay
Enzyme activity was monitored using the KinEASE™-TK Assay Kit (Cisflio, Cat. No. 62TK0PEC) according to the manufacturer's instructions. All assays were performed at the respective KmATP for each kinase in KinEASE™ Kinase Buffer.
Titration of compounds were performed in a half-log manner in 100% dimethyl sulfoxide (DMSO) starting at 1 uM. Prior to the initiation of the reaction by adenosine triphosphate (ATP), FGFR1 protein and compounds were pre-incubated for 15 minutes at room temperature, and FGFR3 protein and compounds were pre-incubated on ice for 15 minutes. Reactions proceeded for 30 min at 30° C. Plates were quenched by the addition of the Anti-TK cryptate antibody/Streptavidin-XL665 mixture.
Ratios were converted to a percent of control (POC) using a ratiometric emission factor. One hundred POC was determined using no test compound, and 0 POC was determined in the presence of 1 uM of an appropriate control inhibitor.

T1 sequence (P22607 23-806): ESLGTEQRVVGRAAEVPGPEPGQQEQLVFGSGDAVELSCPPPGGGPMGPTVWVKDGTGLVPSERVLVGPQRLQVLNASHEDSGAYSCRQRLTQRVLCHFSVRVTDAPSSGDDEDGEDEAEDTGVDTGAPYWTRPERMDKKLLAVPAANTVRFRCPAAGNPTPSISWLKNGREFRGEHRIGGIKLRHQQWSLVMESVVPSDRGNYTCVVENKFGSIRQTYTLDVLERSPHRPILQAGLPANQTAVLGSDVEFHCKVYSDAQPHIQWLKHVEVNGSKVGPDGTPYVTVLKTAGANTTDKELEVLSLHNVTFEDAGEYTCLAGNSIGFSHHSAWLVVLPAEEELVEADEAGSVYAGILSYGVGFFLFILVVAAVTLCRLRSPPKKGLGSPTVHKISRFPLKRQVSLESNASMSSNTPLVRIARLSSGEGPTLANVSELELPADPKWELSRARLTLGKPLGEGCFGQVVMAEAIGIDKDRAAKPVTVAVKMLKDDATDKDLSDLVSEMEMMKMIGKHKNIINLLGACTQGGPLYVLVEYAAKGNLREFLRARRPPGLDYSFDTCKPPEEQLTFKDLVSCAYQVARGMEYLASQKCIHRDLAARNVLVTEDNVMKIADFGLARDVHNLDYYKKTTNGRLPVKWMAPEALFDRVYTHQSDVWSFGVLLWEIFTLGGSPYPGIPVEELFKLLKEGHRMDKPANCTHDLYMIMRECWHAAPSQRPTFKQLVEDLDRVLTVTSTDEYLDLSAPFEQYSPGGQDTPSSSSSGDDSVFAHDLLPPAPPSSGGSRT

Row | SMILES | IC50 [nM]
1 | Cc1c(-c2cc(OC(C)c3ccccc3S(C)(=O)=O)c3c(C#N)cnn3c2)cnn1C1CCN(C#N)CC1 (single isomer, unassigned; isomer 2) [Example 77, 6-[1-(1-Cyano-4-piperidyl)-5-methyl-pyrazol-4-yl]-4-[1-(2-methylsulfonylphenyl)ethoxy]pyrazolo[1,5-a]pyridine-3-carbonitrile, Isomer 2] | < 100
2 | Cc1c(-c2cc(OC(C)c3cc(C(F)(F)F)cnc3N3CCOCC3)c3c(C#N)cnn3c2)nnn1C1CCN(C#N)CC1 (stereo not drawn) [Example 13, 6-[1-(1-Cyano-4-piperidyl)-5-methyl-triazol-4-yl]-4-[1-[2-morpholino-5-(trifluoromethyl)-3-pyridyl]ethoxy]pyrazolo [1,5-a]pyridine-3-carbonitrile] | < 100
3 | Cc1c(-c2cc(OC(C)c3cncc4cc(F)ccc34)c3c(C#N)cnn3c2)nnn1C1CCN(C#N)CC1 (stereo not drawn) [Example 21, 6-[1-(1-Cyano-4-piperidyl)-5-methyl-triazol-4-yl]-4-[1-(7-fluoro-4-isoquinolyl)ethoxy] pyrazolo[1,5-a] pyridine-3-carbonitrile] | < 50
4 | Cc1c(-c2cc(OC(CF)c3ccc(F)cn3)c3c(C#N)cnn3c2)nnn1C1CCN(C#N)CC1 (stereo not drawn) [Example 22, 6-[1-(1-Cyano-4-piperidyl)-5-methyl-triazol-4-yl]-4-[2-fluoro-1-(5-fluoro-2-pyridyl)ethoxy]pyrazolo [1,5-a]pyridine-3-carbonitrile] | < 50
5 | Cc1c(-c2cc(OC(C)c3cncc4ccccc34)c3c(C#N)cnn3c2)nnn1C1CCN(C#N)CC1 (stereo not drawn) [Example 24, 6-[1-(1-Cyano-4-piperidyl)-5-methyl-triazol-4-yl]-4-[1-(4-isoquinolyl)ethoxy] pyrazolo[1,5-a] pyridine-3-carbonitrile] | < 50
6 | Cc1c(-c2cc(OC(c3ccc(F)cn3)C3(F)CC3)c3c(C#N)cnn3c2)nnn1C1CCN(C#N)CC1 (stereo not drawn) [Example 26, 6-[1-(1-Cyano-4-piperidyl)-5-methyl-triazol-4-yl]-4-[(1-fluorocyclopropyl)-(5-fluoro-2-pyridyl)methoxy]pyrazolo [1,5-a]pyridine-3-carbonitrile] | < 50
7 | Cc1c(-c2cc(O[C@H](C)c3ccccn3)c3c(C#N)cnn3c2)nnn1C1CCN(C#N)CC1 [Example 169, 4-(4-[3-Cyano-4-[(1R)-1-(pyridin-2-yl)ethoxy]pyrazolo[1,5-a]pyridin-6-yl]-5-methyl-1,2,3-triazol-1-yl)piperidine-1-carbonitrile] | < 50
8 | Cc1c(-c2cc(O[C@H](C)c3ccc(F)cn3)n3c(C#N)cnc3c2)nnn1C1CCN(C#N)CC1 [Example 170, 4-(4-[3-Cyano-5-[(1R)-1-(5-fluoropyridin-2-yl)ethoxy]imidazo[1,2-a]pyridin-7-yl]-5-methyl-1,2,3-triazol-1-yl)piperidine-1-carbonitrile] | < 50
9 | COc1cc(-c2cnn(C3CC4(CCN(C#N)CC4)C3)c2C)cn2ncc(C#N)c12 [Example 171, 2-(4-[3-Cyano-4-methoxypyrazolo[1,5-a]pyridin-6-yl]-5-methylpyrazol-1-yl)-7-azaspiro[3.5]nonane-7-carbonitrile] | < 50
10 | COc1cc(-c2cnn([C@H]3C[C@H]4CC[C@@H](C3)N4C#N)c2C)cn2ncc(C#N)c12 [Example 183, 6-(1-((1R,3r,5S)-8-Cyano-8-azabicyclo[3.2.1]octan-3-yl)-5-methyl-1H-pyrazol-4-yl)-4-methoxypyrazolo[1,5-a]pyridine-3-carbonitrile] | < 50
11 | Cc1c(-c2cc(O[C@H](C)c3ccnn3C)c3c(C#N)cnn3c2)cnn1C1CCN(C#N)CC1 [Example 189, 4-(4-[3-Cyano-4-[(1R)-1-(2-methylpyrazol-3-yl)ethoxy]pyrazolo [1,5-a]pyridin-6-yl]-5-methylpyrazol-1-yl)piperidine-1-carbonitrile] | < 50
12 | Cc1c(-c2cc(O[C@H](C)C3CCC3)c3c(C#N)cnn3c2)cnn1C1CCN(C#N)CC1 [Example 195, 4-(4-[3-cyano-4-[(1R)-1-cyclobutylethoxy]pyrazolo[1,5-a]pyridin-6-yl]-5-methylpyrazol-1-yl)piperidine-1-carbonitrile] | < 50
13 | Cc1c(-c2cc(O[C@H](C)c3ccccn3)n3c(C#N)cnc3c2)nnn1C1CCN(C#N)CC1 [Example 201, 4-(4-[3-Cyano-5-[(1R)-1-(pyridin-2-yl)ethoxy]imidazo [1,2-a]pyridin-7-yl]-5-methyl-1,2,3-triazol-1-yl)piperidine-1-carbonitrile] | < 50
14 | Cc1c(-c2cc(O[C@H](C)c3ccc(F)cn3)n3c(C#N)cnc3c2)cnn1C1CCN(C#N)CC1 [Example 209] | < 50
15 | Cc1c(-c2cc(O[C@H](C)c3ccccn3)n3c(C#N)cnc3c2)nnn1C1CC2(CCN(C#N)CC2)C1 [Example 212, 7-[1-(7-Cyano-7-azaspiro[3.5]nonan-2-yl)-5-methyl-triazol-4-yl]-5-[(1R)-1-(2-pyridyl)ethoxy]imidazo [1,2-a]pyridine-3-carbonitrile] | < 50

Second part, the compound after the results:

Row | IC50 [nM] | SMILES
16 | < 50 | COc1cc(-c2cnn(C3CN([C@H]4CCCN(C#N)C4)C3)c2C)cn2ncc(C#N)c12 [Example 215, (3S)-3-[3-(4-[3-Cyano-4-methoxypyrazolo[1,5-a]pyridin-6-yl]-5-methylpyrazol-1-yl)azetidin-1-yl]piperidine-1-carbonitrile]
17 | < 50 | COc1cc(-c2cnn(C3CN([C@@H]4CCN(C#N)C4)C3)c2C)cn2ncc(C#N)c12 [Example 222, (3R)-3-[3-(4-[3-Cyano-4-methoxypyrazolo[1,5-a]pyridin-6-yl]-5-methylpyrazol-1-yl)azetidin-1-yl]pyrrolidine-1-carbonitrile]
18 | < 100 | COc1cc(-c2cnn(C3CN(C4CC5CC(C4)N(C#N)C5)C3)c2C)cn2ncc(C#N)c12 (stereo not drawn) [Example 225, 6-(1-(1-(6-cyano-6-azabicyclo[3.2.1]octan-3-yl)azetidin-3-yl)-5-methyl-1H-pyrazol-4-yl)-4-methoxypyrazolo[1,5-a]pyridine-3-carbonitrile]
19 | < 50 | Cc1c(-c2cc(O[C@H](C)c3ccccn3)n3c(C#N)cnc3c2)cnn1C1CN(C2CC3CCC2N3C#N)C1 (stereo partly drawn) [Example 226, 7-[1-[1-(7-Cyano-7-azabicyclo[2.2.1]heptan-2-yl)azetidin-3-yl]-5-methyl-pyrazol-4-yl]-5-[(1R)-1-(2-pyridyl)ethoxy]imidazo [1,2-a]pyridine-3-carbonitrile]
20 | < 50 | COc1cc(-c2cnn(C3CCN(C4CN(C#N)C4)CC3)c2C)cn2ncc(C#N)c12 [Example 228, 3-[4-(4-[3-Cyano-4-methoxypyrazolo[1,5-a]pyridin-6-yl]-5-methylpyrazol-1-yl)piperidin-1-yl]azetidine-1-carbonitrile]
21 | < 100 | Cc1c(-c2cc(O[C@H](C)c3ccccn3)n3c(Cl)cnc3c2)nnn1C1CN(C2CCN(C#N)CC2)C1 [Example 233, 4-[3-[4-[3-Chloro-5-[(1R)-1-(2-pyridyl)ethoxy]imidazo[1,2-a]pyridin-7-yl]-5-methyl-triazol-1-yl]azetidin-1-yl]piperidine-1-carbonitrile]
22 | < 50 | Cc1c(-c2cc(O[C@H](C)C3CCOCC3)c3c(C#N)cnn3c2)cnn1C1CCN(C#N)CC1 [Example 245, 4-(4-[3-Cyano-4-[(1R)-1-(oxan-4-yl)ethoxy]pyrazolo [1,5-a]pyridin-6-yl]-5-methylpyrazol-1-yl)piperidine-1-carbonitrile]
23 | < 50 | Cc1c(-c2cc(O[C@H](C)c3ccccn3)n3c(C#N)cnc3c2)nnn1C1CCCN(C#N)CC1 (stereo partly drawn) [Example 257, 7-[1-(1-Cyanoazepan-4-yl)-5-methyl-triazol-4-yl]-5-[(1R)-1-(2-pyridyl)ethoxy] imidazo[1,2-a]pyridine-3-carbonitrile]
24 | < 100 | Cc1c(-c2cc(O[C@H](C)c3nncn3CC(F)(F)F)n3c(C#N)cnc3c2)nnn1C1CCN(C#N)CC1 [Example 274, 7-[1-(1-Cyano-4-piperidyl)-5-methyl-triazol-4-yl]-5-[(1R)-1-[4-(2,2,2-trifluoroethyl)-1,2,4-triazol-3-yl]ethoxy]imidazo [1,2-a]pyridine-3-carbonitrile]
25 | < 50 | Cc1nc([C@@H](C)Oc2cc(-c3nnn(C4CCN(C#N)CC4)c3C)cn3ncc(C#N)c23)cs1 [Example 291, 6-[1-(1-Cyano-4-piperidyl)-5-methyl-triazol-4-yl]-4-[(1R)-1-(2-methylthiazol-4-yl)ethoxy]pyrazolo [1,5-a]pyridine-3-carbonitrile]
26 | < 50 | Cc1c(-c2cc(O[C@H](C)c3ccn(C)n3)c3c(C#N)cnn3c2)nnn1C1CCN(C#N)CC1 [Example 292, 6-[1-(1-Cyano-4-piperidyl)-5-methyl-triazol-4-yl]-4-[(1R)-1-(1-methylpyrazol-3-yl)ethoxy]pyrazolo [1,5-a]pyridine-3-carbonitrile]
27 | < 50 | Cc1c(-c2cc(O[C@H](C)c3ccccc3C#N)c3c(Cl)cnn3c2)cnn1C1CCN(C#N)CC1 [Example 297, 4-[4-[3-Chloro-4-[(1R)-1-(2-cyanophenyl)ethoxy]pyrazolo[1,5-a]pyridin-6-yl]-5-methyl-pyrazol-1-yl]piperidine-1-carbonitrile]
